# Patent US20020111274A1, “1-alkyl-3-[1-(substituted phenyl) benzotriazol-6-yl] uracils” (BASF Aktiengesellschaft, priority 2000, published 2002)
# What was measured:
# Parameters in all cases: scale not given here
# GLXMAW Soybean, Williams [1] = assay: Preemergence herbicidal evaluation, GLXMAW; type: in vivo, Glycine max, (L.) Merr. cv Williams; conditions: preemergence
# Source text: (§1) The preemergence herbicidal activity of the test compounds of the present invention is exemplified by the following tests in which the seeds of a variety of monocotyledonous and dicotyledonous plants are separately mixed with potting soil and planted on top of approximately one inch of soil in separate pint cups. […] The treated cups are then placed on greenhouse benches, watered and cared for in accordance with conventional greenhouse procedures. From four to five weeks after treatment, the tests are terminated and each cup is examined and rated according to the rating system provided in Example 46.
# SETVI Foxtail, Green = assay: Preemergence herbicidal evaluation, SETVI; type: in vivo, Setaria viridis, (L.) Beau; conditions: preemergence
# Source text: as §1
# ZEAMX Corn, Field [2] = assay: Postemergence herbicidal evaluation, ZEAMX; type: in vivo, Zea mays, L. (Sammel-Bezeichnung); conditions: postemergence spray, rated about two-three weeks after treatment
# Protocol: (§2) In this evaluation, seedling plants are grown in jiffy flats for about two weeks. The test compounds are dispersed in 80/20 acetone/water mixtures containing 1.0% SUN-IT® II, a methylated seed oil, in sufficient quantities to provide the equivalent of about 0.006 kg to 0.400 kg per hectare of active compound when applied to the plants through a spray nozzle operating at 40 psi for a predetermined time. After spraying, the plants are placed on greenhouse benches and are cared for in accordance with conventional greenhouse procedures. Approximately two - three weeks after treatment, the seedling plants are examined and rated according to the rating system set forth below. Where more than one test is involved for a given compound, the data are averaged.
# ZEAMX Corn, Field [3] = assay: Preemergence herbicidal evaluation, ZEAMX; type: in vivo, Zea mays, L. (Sammel-Bezeichnung); conditions: preemergence
# Source text: as §1
# GALAP Galium [4] = assay: Preemergence herbicidal evaluation, GALAP; type: in vivo, Galium aparine; conditions: preemergence
# Source text: as §1
# GALAP Galium [5] = assay: Postemergence herbicidal evaluation, GALAP; type: in vivo, Galium aparine; conditions: postemergence spray, rated about two-three weeks after treatment
# Protocol: as §2
# CASOB Sicklepod = assay: Postemergence herbicidal evaluation, CASOB; type: in vivo, Cassia obtusifolia, L.; conditions: postemergence spray, rated about two-three weeks after treatment
# Protocol: as §2
# ABUTH Velvetleaf = assay: Preemergence herbicidal evaluation, ABUTH; type: in vivo, Abutilon theophrasti, Medic.; conditions: preemergence
# Source text: as §1
# [6] = tested on: IPOHE Morningglory, Ivyleaf; assay: Postemergence herbicidal evaluation, IPOHE; type: in vivo, Ipomoea hederacea, (L.) Jacq.; conditions: postemergence spray, rated about two-three weeks after treatment
# Protocol: as §2
# ECHOG Barnyardgrass = assay: Postemergence herbicidal evaluation, ECHOG; type: in vivo, Echinochloa crus-galli, (L.) Beau; conditions: postemergence spray, rated about two-three weeks after treatment
# Protocol: as §2
# ORYSAT Rice, Tebonnet = assay: Postemergence herbicidal evaluation, ORYSAT; type: in vivo, Oryza sativa, (L.); conditions: postemergence spray, rated about two-three weeks after treatment
# Protocol: as §2
# GLXMAW Soybean, Williams [7] = assay: Postemergence herbicidal evaluation, GLXMAW; type: in vivo, Glycine max, (L.) Merr. cv Williams; conditions: postemergence spray, rated about two-three weeks after treatment
# Protocol: as §2
smiles,measurement,setting,value
Cc1ccccc1-n1nnc2cc(F)c(-n3c(=O)cc(C(F)(F)F)n(C)c3=O)cc21 [Example 20],GLXMAW herbicidal rating,"GLXMAW Soybean, Williams [1]; rate 0.016 kg/ha",0.0
same,GLXMAW herbicidal rating,"GLXMAW Soybean, Williams [1]; rate 0.032 kg/ha",0.5
same,GLXMAW herbicidal rating,"GLXMAW Soybean, Williams [1]; rate 0.062 kg/ha",1.5
same,GLXMAW herbicidal rating,"GLXMAW Soybean, Williams [1]; rate 0.125 kg/ha",3.0
same,SETVI herbicidal rating,"SETVI Foxtail, Green; rate 0.016 kg/ha",0.0
same,SETVI herbicidal rating,"SETVI Foxtail, Green; rate 0.032 kg/ha",8.0
same,SETVI herbicidal rating,"SETVI Foxtail, Green; rate 0.062 kg/ha",9.0
same,SETVI herbicidal rating,"SETVI Foxtail, Green; rate 0.125 kg/ha",9.0
same,Postemergence herbicidal rating ZEAMX,"ZEAMX Corn, Field [2]; 0.008 kg/ha",3.0
same,Postemergence herbicidal rating ZEAMX,"ZEAMX Corn, Field [2]; 0.016 kg/ha",3.5
same,Postemergence herbicidal rating ZEAMX,"ZEAMX Corn, Field [2]; 0.032 kg/ha",3.5
same,Postemergence herbicidal rating ZEAMX,"ZEAMX Corn, Field [2]; 0.062 kg/ha",5.0
same,ZEAMX herbicidal rating,"ZEAMX Corn, Field [3]; rate 0.016 kg/ha",0.0
same,ZEAMX herbicidal rating,"ZEAMX Corn, Field [3]; rate 0.032 kg/ha",1.0
same,ZEAMX herbicidal rating,"ZEAMX Corn, Field [3]; rate 0.062 kg/ha",4.5
same,ZEAMX herbicidal rating,"ZEAMX Corn, Field [3]; rate 0.125 kg/ha",6.0
same,GALAP herbicidal rating,GALAP Galium [4]; rate 0.016 kg/ha,0.0
same,GALAP herbicidal rating,GALAP Galium [4]; rate 0.032 kg/ha,0.0
same,GALAP herbicidal rating,GALAP Galium [4]; rate 0.062 kg/ha,0.0
same,GALAP herbicidal rating,GALAP Galium [4]; rate 0.125 kg/ha,0.0
same,Postemergence herbicidal rating GALAP,GALAP Galium [5]; 0.008 kg/ha,0.0
same,Postemergence herbicidal rating GALAP,GALAP Galium [5]; 0.016 kg/ha,0.0
same,Postemergence herbicidal rating GALAP,GALAP Galium [5]; 0.032 kg/ha,2.0
same,Postemergence herbicidal rating GALAP,GALAP Galium [5]; 0.062 kg/ha,9.0
same,Postemergence herbicidal rating CASOB,CASOB Sicklepod; 0.008 kg/ha,0.0
same,Postemergence herbicidal rating CASOB,CASOB Sicklepod; 0.016 kg/ha,0.0
same,Postemergence herbicidal rating CASOB,CASOB Sicklepod; 0.032 kg/ha,0.0
same,Postemergence herbicidal rating CASOB,CASOB Sicklepod; 0.062 kg/ha,1.0
same,ABUTH herbicidal rating,ABUTH Velvetleaf; rate 0.016 kg/ha,0.0
same,ABUTH herbicidal rating,ABUTH Velvetleaf; rate 0.032 kg/ha,6.5
same,ABUTH herbicidal rating,ABUTH Velvetleaf; rate 0.062 kg/ha,9.0
same,ABUTH herbicidal rating,ABUTH Velvetleaf; rate 0.125 kg/ha,9.0
same,Postemergence herbicidal rating IPOHE,[6]; 0.008 kg/ha,1.0
same,Postemergence herbicidal rating IPOHE,[6]; 0.016 kg/ha,4.0
same,Postemergence herbicidal rating IPOHE,[6]; 0.032 kg/ha,4.0
same,Postemergence herbicidal rating IPOHE,[6]; 0.062 kg/ha,9.0
same,Postemergence herbicidal rating ECHCG,ECHOG Barnyardgrass; 0.008 kg/ha,0.0
same,Postemergence herbicidal rating ECHCG,ECHOG Barnyardgrass; 0.016 kg/ha,0.0
same,Postemergence herbicidal rating ECHCG,ECHOG Barnyardgrass; 0.032 kg/ha,0.0
same,Postemergence herbicidal rating ECHCG,ECHOG Barnyardgrass; 0.062 kg/ha,0.0
same,Postemergence herbicidal rating ORYSAT,"ORYSAT Rice, Tebonnet; 0.008 kg/ha",0.0
same,Postemergence herbicidal rating ORYSAT,"ORYSAT Rice, Tebonnet; 0.016 kg/ha",0.5
same,Postemergence herbicidal rating ORYSAT,"ORYSAT Rice, Tebonnet; 0.032 kg/ha",0.5
same,Postemergence herbicidal rating ORYSAT,"ORYSAT Rice, Tebonnet; 0.062 kg/ha",1.0
same,Postemergence herbicidal rating GLXMAW,"GLXMAW Soybean, Williams [7]; 0.008 kg/ha",3.0
same,Postemergence herbicidal rating GLXMAW,"GLXMAW Soybean, Williams [7]; 0.016 kg/ha",5.5
same,Postemergence herbicidal rating GLXMAW,"GLXMAW Soybean, Williams [7]; 0.032 kg/ha",5.5
same,Postemergence herbicidal rating GLXMAW,"GLXMAW Soybean, Williams [7]; 0.062 kg/ha",5.5
